Source: ChEMBL document CHEMBL2069192, “Synthesis of 3-(1-alkyl/aminoalkyl-3-vinyl-piperidin-4-yl)-1-(quinolin-4-yl)-propan-1-ones and their 2-methylene derivatives as potential spermicidal and microbicidal agents” (Bioorg Med Chem Lett, 2012)
Values after ≈ are worked out from the molar mass of the structure shown. Active and inactive are the calls of the source. No cut-off for these calls is given here.

How the values were obtained:
[1] = test system: Spermatozoa; assay: Spermicidal activity against human spermatozoa at 10 mg/ml by modified sander-cramer assay; assay type: functional
[2] = Antimicrobial activity against Lactobacillus jensenii
[3] = test system: HeLa; assay: Cytotoxicity against human HeLa cells by MTT assay; assay type: cell-based
[4] = test system: Trichomonas vaginalis; assay: Antimicrobial activity against Trichomonas vaginalis ATCC 25258; assay type: functional
[5] = test system: Trichomonas vaginalis; assay: Antimicrobial activity against clinical isolate of Trichomonas vaginalis; assay type: functional

Compound | Activity [1] | EC50 [2] | EC50 [3] | MIC [4] | MIC [5]
C=C[C@H]1CN(CC)CC[C@H]1CCC(=O)c1ccnc2ccccc12 | inactive | – | – | – | –
C=C[C@H]1CN(CCCCCCCC)CC[C@H]1CCC(=O)c1ccnc2ccccc12 | inactive | – | – | – | –
C=C[C@H]1CNCC[C@H]1CCC(=O)c1ccnc2ccccc12 [CINCHOTOXIN] | – | 449 µg/mL (≈ 1530 µM) | > 1000 µg/mL | inactive | inactive
C=C[C@H]1CN(CCCC)CC[C@H]1CCC(=O)c1ccnc2ccccc12 | inactive | – | – | – | –
C=C[C@H]1CN(CCCCCC)CC[C@H]1CCC(=O)c1ccnc2ccccc12 | inactive | – | – | – | –
Cc1ncc([N+](=O)[O-])n1CCO [METRONIDAZOLE] | inactive | > 1000 µg/mL | > 1000 µg/mL | 62.5 µg/mL (≈ 365 µM) | 2 µg/mL (≈ 11.7 µM)
C=C[C@H]1CN(CCCCC)CC[C@H]1CCC(=O)c1ccnc2ccccc12.O=C(O)C(O)C(O)C(=O)O | – | 76.3 µg/mL | 19.1 µg/mL | 3.12 µg/mL | 1.5 µg/mL
CCCCCCCCCc1ccc(OCCOCCOCCOCCOCCOCCOCCOCCOCCO)cc1 [NONOXYNOL 9] | – | 32.5 µg/mL (≈ 52.7 µM) | 33.2 µg/mL (≈ 53.8 µM) | 37.5 µg/mL (≈ 60.8 µM) | 37.5 µg/mL (≈ 60.8 µM)
C=C[C@H]1CN(CC)CC[C@H]1CC(=C)C(=O)c1ccnc2ccccc12.O=C(O)C(O)C(O)C(=O)O | – | 685 µg/mL | 133 µg/mL | 50 µg/mL | 12.5 µg/mL
C=C[C@H]1CN(CC(C)C)CC[C@H]1CCC(=O)c1ccnc2ccccc12 | inactive | – | – | – | –
C=C[C@H]1CN2CC[C@H]1C[C@@H]2[C@@H](O)c1ccnc2ccccc12 [CINCHONINE] | – | 428 µg/mL (≈ 1450 µM) | 697 µg/mL (≈ 2370 µM) | inactive | inactive
C=C[C@H]1CN(CCCCC)CC[C@H]1CC(=C)C(=O)c1ccnc2ccccc12.O=C(O)C(O)C(O)C(=O)O | – | 130 µg/mL | 104 µg/mL | 25 µg/mL | 12.5 µg/mL
C=C[C@H]1CN(CCCC)CC[C@H]1CC(=C)C(=O)c1ccnc2ccccc12.O=C(O)C(O)C(O)C(=O)O | – | 321 µg/mL | 138 µg/mL | 50 µg/mL | 3.12 µg/mL
C=C[C@H]1CN(CCC)CC[C@H]1CCC(=O)c1ccnc2ccccc12.O=C(O)C(O)C(O)C(=O)O | – | 526 µg/mL | 276 µg/mL | 100 µg/mL | 25 µg/mL
